Test results: ChEMBL document CHEMBL4052645, “Discovery of potent and efficacious pyrrolopyridazines as dual JAK1/3 inhibitors” (Bioorg Med Chem Lett, 2017)

Tests used:
JAK2 = JAK2 (Homo sapiens, UniProt O60674); experiment: Inhibition of human JAK2 (A829 to G1132 residues) expressed in mammalian expression system assessed as residual activity at 50 nM by KINOMEscan assay relative to control; settings: read-out: Activity
[1] = target: BMP-2-inducible protein kinase (Homo sapiens) (UniProt Q9NSY1); experiment: Inhibition of human BIKE (S34 to N329 residues) expressed in bacterial expression system assessed as residual activity at 50 nM by KINOMEscan assay relative to control
[2] = target: Mitogen-activated protein kinase kinase kinase kinase 3 (Homo sapiens) (UniProt Q8IVH8); experiment: Inhibition of wild-type human partial length KHS2 (M1 to D301 residues) expressed in bacterial expression system assessed as residual activity at 50 nM by Kinomescan method relative to control
Mitogen-activated protein kinase kinase kinase kinase 3 (Homo sapiens), sequence (Q8IVH8 whole entry, the tested form may be a part): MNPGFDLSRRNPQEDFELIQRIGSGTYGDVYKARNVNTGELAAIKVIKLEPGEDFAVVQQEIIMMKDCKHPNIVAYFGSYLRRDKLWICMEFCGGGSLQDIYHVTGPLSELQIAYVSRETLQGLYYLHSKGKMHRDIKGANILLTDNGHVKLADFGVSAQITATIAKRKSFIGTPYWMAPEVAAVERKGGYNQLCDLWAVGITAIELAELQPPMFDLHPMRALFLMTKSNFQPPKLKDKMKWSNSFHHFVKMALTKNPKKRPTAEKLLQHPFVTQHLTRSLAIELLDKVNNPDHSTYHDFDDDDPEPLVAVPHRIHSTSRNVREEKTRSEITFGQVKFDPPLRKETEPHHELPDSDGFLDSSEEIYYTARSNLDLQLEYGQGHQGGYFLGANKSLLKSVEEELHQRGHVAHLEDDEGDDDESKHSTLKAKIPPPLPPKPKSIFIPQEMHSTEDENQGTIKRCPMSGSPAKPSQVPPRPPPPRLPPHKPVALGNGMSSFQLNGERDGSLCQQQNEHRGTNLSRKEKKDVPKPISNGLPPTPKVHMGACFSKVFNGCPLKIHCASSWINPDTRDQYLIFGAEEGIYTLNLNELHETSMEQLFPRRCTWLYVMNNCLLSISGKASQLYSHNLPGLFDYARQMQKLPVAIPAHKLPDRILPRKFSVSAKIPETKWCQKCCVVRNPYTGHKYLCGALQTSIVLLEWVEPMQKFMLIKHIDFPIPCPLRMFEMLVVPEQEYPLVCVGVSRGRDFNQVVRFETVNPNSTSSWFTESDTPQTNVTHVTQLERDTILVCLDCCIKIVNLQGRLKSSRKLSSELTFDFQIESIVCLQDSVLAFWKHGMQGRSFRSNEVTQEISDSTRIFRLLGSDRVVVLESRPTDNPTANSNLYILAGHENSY

[3] = target: Protein kinase C theta type (Homo sapiens) (UniProt Q04759); experiment: Inhibition of wild-type human partial length PKCT (L350 to S706 residues) expressed in bacterial expression system assessed as residual activity at 50 nM by Kinomescan method relative to control
[4] = target: Mitogen-activated protein kinase kinase kinase 6 (Homo sapiens) (UniProt O95382); experiment: Inhibition of wild-type human partial length MAP3K6 (M278 to R972 residues) expressed in mammalian expression system assessed as residual activity at 50 nM by Kinomescan method relative to control
[5] = target: Cyclin-dependent kinase 18 (Homo sapiens) (UniProt Q07002); experiment: Inhibition of wild-type human full length PCTAIRE3 (M3 to F474 residues) expressed in bacterial expression system assessed as residual activity at 50 nM by Kinomescan method relative to control
Cyclin-dependent kinase 18 (Homo sapiens), sequence (Q07002 whole entry, the tested form may be a part): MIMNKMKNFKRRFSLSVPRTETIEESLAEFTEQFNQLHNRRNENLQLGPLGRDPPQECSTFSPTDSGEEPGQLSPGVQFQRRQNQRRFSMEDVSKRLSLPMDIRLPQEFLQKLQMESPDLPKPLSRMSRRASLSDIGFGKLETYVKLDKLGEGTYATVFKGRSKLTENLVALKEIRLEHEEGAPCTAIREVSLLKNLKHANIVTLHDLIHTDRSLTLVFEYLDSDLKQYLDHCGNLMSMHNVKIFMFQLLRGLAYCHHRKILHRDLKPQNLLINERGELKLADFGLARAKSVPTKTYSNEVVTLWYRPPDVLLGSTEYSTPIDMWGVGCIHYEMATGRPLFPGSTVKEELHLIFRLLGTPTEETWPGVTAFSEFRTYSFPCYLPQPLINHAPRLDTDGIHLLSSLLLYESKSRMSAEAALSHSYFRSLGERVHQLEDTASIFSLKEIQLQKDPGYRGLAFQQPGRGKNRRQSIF

[6] = target: Ephrin type-B receptor 6 (Homo sapiens) (UniProt O15197); experiment: Inhibition of wild-type human partial length EPHB6 (Q634 to P948 residues) expressed in mammalian expression system assessed as residual activity at 50 nM by Kinomescan method relative to control
[7] = target: Inhibitor of nuclear factor kappa-B kinase subunit beta (Homo sapiens) (UniProt O14920); experiment: Inhibition of wild-type human full length IKK-beta (M1 to S756 residues) expressed in mammalian expression system assessed as residual activity at 50 nM by Kinomescan method relative to control
[8] = target: Serine/threonine-protein kinase PAK 4 (Homo sapiens) (UniProt O96013); experiment: Inhibition of wild-type human partial length PAK4 (Q144 to R438 residues) expressed in bacterial expression system assessed as residual activity at 50 nM by Kinomescan method relative to control
Serine/threonine-protein kinase PAK 4 (Homo sapiens), sequence (O96013 whole entry, looked up, the tested form may be a part): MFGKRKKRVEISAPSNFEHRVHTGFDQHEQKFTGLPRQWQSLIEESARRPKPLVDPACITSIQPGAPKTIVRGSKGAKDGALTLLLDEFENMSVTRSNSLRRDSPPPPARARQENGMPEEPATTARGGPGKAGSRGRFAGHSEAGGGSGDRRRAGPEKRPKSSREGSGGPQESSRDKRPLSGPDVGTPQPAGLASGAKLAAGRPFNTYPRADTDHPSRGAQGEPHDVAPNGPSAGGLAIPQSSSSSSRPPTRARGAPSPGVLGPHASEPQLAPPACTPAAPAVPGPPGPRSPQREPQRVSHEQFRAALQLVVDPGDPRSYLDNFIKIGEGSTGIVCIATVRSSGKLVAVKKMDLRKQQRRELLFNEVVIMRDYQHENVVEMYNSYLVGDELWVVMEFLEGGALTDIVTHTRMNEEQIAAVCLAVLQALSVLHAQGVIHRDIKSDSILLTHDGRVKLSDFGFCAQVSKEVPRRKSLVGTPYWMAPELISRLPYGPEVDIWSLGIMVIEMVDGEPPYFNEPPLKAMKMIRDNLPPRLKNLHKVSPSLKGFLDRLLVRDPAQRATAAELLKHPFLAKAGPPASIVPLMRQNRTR

[9] = target: Focal adhesion kinase 1 (Homo sapiens) (UniProt Q05397); experiment: Inhibition of wild-type human partial length FAK (D402 to R696 residues) expressed in bacterial expression system assessed as residual activity at 50 nM by Kinomescan method relative to control
Focal adhesion kinase 1 (Homo sapiens), sequence (Q05397 2-1052 limits assumed): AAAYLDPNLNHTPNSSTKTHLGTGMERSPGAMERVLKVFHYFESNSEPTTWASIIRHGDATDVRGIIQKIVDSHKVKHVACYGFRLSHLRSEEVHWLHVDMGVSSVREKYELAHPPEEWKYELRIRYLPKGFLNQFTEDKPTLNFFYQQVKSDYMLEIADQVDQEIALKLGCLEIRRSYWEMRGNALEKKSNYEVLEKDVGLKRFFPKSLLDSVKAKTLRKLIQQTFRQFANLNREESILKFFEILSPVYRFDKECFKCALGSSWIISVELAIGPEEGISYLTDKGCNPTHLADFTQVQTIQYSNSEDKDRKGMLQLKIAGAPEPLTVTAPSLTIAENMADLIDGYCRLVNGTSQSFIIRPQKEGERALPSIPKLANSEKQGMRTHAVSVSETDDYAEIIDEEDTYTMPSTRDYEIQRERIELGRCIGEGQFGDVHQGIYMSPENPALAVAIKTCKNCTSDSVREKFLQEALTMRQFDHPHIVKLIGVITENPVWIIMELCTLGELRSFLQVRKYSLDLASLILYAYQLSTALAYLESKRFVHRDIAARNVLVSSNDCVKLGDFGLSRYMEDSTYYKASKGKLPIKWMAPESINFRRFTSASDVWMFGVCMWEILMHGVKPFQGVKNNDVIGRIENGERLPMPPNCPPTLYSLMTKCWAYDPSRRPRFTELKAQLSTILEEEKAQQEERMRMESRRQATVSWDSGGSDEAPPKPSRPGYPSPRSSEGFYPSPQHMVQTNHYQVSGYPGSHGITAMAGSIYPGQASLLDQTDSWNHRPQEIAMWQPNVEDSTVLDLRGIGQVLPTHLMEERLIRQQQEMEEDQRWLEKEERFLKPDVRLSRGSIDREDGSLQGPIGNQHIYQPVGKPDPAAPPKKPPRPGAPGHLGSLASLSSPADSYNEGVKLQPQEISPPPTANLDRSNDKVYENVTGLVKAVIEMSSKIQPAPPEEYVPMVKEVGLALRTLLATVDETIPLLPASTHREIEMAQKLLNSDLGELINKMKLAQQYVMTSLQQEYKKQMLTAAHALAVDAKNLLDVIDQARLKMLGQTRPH

[10] = target: Mitogen-activated protein kinase 3 (Homo sapiens) (UniProt P27361); experiment: Inhibition of wild-type human full length ERK1 (M1 to P379 residues) expressed in bacterial expression system assessed as residual activity at 50 nM by Kinomescan method relative to control
[11] = target: Insulin receptor (Homo sapiens) (UniProt P06213); experiment: Inhibition of wild-type human partial length INSR (P997 to E1318 residues) expressed in mammalian expression system assessed as residual activity at 50 nM by Kinomescan method relative to control
[12] = target: Interleukin-1 receptor-associated kinase 1 (Homo sapiens) (UniProt P51617); experiment: Inhibition of wild-type human partial length IRAK1 (R194 to S712 residues) expressed in mammalian expression system assessed as residual activity at 50 nM by Kinomescan method relative to control
[13] = target: SRSF protein kinase 2 (Homo sapiens) (UniProt P78362); experiment: Inhibition of wild-type human full length SRPK2 (M1 to S686 residues) expressed in bacterial expression system assessed as residual activity at 50 nM by Kinomescan method relative to control
[14] = target: Serine/threonine-protein kinase BRSK2 (Homo sapiens) (UniProt Q8IWQ3); experiment: Inhibition of wild-type human full length BRSK2 (M1 to L674 residues) expressed in bacterial expression system assessed as residual activity at 50 nM by Kinomescan method relative to control
[15] = target: Calcium/calmodulin-dependent protein kinase type 1D (Homo sapiens) (UniProt Q8IU85); experiment: Inhibition of wild-type human partial length CAMK1D (M1 to K299 residues) expressed in bacterial expression system assessed as residual activity at 50 nM by Kinomescan method relative to control
Calcium/calmodulin-dependent protein kinase type 1D (Homo sapiens), sequence (Q8IU85 whole entry, looked up, the tested form may be a part): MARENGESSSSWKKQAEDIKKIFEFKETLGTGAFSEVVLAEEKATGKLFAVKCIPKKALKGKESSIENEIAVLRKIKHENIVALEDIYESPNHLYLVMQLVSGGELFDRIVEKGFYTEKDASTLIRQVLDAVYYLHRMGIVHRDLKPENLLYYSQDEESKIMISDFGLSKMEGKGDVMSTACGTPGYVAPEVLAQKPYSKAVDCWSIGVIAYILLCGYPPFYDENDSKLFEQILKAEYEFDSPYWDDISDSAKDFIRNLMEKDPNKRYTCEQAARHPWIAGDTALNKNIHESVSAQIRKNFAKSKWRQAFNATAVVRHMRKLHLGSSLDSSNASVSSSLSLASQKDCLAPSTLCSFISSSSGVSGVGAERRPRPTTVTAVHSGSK

[16] = target: Calcium/calmodulin-dependent protein kinase type II subunit delta (Homo sapiens) (UniProt Q13557); experiment: Inhibition of wild-type human partial length CAMK2D (M1 to E329 residues) expressed in bacterial expression system assessed as residual activity at 50 nM by Kinomescan method relative to control
[17] = target: Casein kinase I isoform gamma-3 (Homo sapiens) (UniProt Q9Y6M4); experiment: Inhibition of wild-type human full length CK1G3 (M1 to K447 residues) expressed in bacterial expression system assessed as residual activity at 50 nM by Kinomescan method relative to control
[18] = target: Dual specificity protein kinase CLK1 (Homo sapiens) (UniProt P49759); experiment: Inhibition of wild-type human full length CLK1 (M1 to I484 residues) expressed in bacterial expression system assessed as residual activity at 50 nM by Kinomescan method relative to control
[19] = target: Discoidin domain-containing receptor 2 (Homo sapiens) (UniProt Q16832); experiment: Inhibition of wild-type human partial length DDR2 (V555 to E855 residues) expressed in mammalian expression system assessed as residual activity at 50 nM by Kinomescan method relative to control
Discoidin domain-containing receptor 2 (Homo sapiens), sequence (Q16832 whole entry, the tested form may be a part): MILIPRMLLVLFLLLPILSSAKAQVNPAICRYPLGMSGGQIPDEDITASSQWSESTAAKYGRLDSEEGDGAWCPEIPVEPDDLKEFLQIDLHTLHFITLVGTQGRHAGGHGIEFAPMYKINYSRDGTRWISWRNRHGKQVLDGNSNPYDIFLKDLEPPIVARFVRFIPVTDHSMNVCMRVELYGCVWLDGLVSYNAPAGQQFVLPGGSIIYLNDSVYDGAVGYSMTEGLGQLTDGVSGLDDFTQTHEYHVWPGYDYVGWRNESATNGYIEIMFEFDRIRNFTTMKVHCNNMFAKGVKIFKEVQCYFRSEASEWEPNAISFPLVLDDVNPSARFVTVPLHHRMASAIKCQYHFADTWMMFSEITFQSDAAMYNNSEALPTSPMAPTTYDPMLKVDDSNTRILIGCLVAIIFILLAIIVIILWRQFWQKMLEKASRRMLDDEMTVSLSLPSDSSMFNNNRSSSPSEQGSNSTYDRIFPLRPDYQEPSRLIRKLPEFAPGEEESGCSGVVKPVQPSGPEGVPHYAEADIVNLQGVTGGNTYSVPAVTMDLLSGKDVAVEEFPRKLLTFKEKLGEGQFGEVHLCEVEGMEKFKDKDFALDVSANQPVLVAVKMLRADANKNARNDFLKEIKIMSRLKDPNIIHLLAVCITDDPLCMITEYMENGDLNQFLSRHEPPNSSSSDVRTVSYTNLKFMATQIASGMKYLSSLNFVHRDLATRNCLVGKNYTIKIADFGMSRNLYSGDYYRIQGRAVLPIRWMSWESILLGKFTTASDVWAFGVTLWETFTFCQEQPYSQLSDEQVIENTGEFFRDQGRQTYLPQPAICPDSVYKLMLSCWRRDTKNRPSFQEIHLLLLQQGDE

[20] = target: Homeodomain-interacting protein kinase 4 (Homo sapiens) (UniProt Q8NE63); experiment: Inhibition of wild-type human partial length HIPK4 (M1 to V384 residues) expressed in bacterial expression system assessed as residual activity at 50 nM by Kinomescan method relative to control
Homeodomain-interacting protein kinase 4 (Homo sapiens), sequence (Q8NE63 whole entry, the tested form may be a part, canonical isoform): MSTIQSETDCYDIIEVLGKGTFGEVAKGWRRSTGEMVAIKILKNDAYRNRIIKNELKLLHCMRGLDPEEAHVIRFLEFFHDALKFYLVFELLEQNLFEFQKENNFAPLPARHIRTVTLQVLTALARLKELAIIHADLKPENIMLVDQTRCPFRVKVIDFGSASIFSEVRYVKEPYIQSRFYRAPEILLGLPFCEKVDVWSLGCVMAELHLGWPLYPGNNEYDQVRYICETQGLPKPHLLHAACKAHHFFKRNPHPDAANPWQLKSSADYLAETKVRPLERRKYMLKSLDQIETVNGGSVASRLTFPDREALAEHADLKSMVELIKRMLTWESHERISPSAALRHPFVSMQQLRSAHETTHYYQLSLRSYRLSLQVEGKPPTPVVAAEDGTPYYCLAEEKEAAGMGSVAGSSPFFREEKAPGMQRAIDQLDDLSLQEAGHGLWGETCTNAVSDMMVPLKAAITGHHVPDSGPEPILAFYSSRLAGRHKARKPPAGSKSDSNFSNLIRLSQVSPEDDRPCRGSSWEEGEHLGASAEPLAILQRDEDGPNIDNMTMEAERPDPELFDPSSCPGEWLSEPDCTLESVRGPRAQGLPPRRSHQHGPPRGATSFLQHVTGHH

[21] = target: Phosphatidylinositol 4,5-bisphosphate 3-kinase catalytic subunit alpha isoform (Homo sapiens) (UniProt P42336); experiment: Inhibition of wild-type human partial length PI3KCA (R108 to N1068 residues) expressed in mammalian expression system assessed as residual activity at 50 nM by Kinomescan method relative to control
[22] = target: Proto-oncogene tyrosine-protein kinase receptor Ret (Homo sapiens) (UniProt P07949); experiment: Inhibition of wild-type human partial length RET (E713 to D1014 residues) expressed in bacterial expression system assessed as residual activity at 50 nM by Kinomescan method relative to control
[23] = target: SNF-related serine/threonine-protein kinase (Homo sapiens) (UniProt Q9NRH2); experiment: Inhibition of wild-type human partial length SNRK (M1 to E339 residues) expressed in mammalian expression system assessed as residual activity at 50 nM by Kinomescan method relative to control
[24] = target: Misshapen-like kinase 1 (Homo sapiens) (UniProt Q8N4C8); experiment: Inhibition of wild-type human partial length MINK (M1 to K312 residues) expressed in mammalian expression system assessed as residual activity at 50 nM by Kinomescan method relative to control

Row | SMILES | activity at 0.05 µM (JAK2) | Activity [1] | Activity [2] | Activity [3] | Activity [4] | Activity [5] | Activity [6] | Activity [7] | Activity [8] | Activity [9] | Activity [10] | Activity [11] | Activity [12] | Activity [13] | Activity [14] | Activity [15] | Activity [16] | Activity [17] | Activity [18] | Activity [19] | further results
1 | COc1ccc(-c2cc3c(N[C@@H]4CC[C@](C)(N)C4(C)C)c(C(N)=O)cnn3c2)cn1 | 17% | 42% | 49% | 74% | 93% | 100% | 86% | 100% | 86% | 88% | 100% | 72% | 100% | 81% | 96% | 100% | 100% | 100% | 97% | 100% | Activity [20]: 80%; Activity [21]: 100%; Activity [22]: 92%; Activity [23]: 92%; Activity [24]: 96%
2 | CC1(C)[C@H](Nc2c(C(N)=O)cnn3cc(-c4ccccc4)cc23)CC[C@]1(C)N | 3.9% | 7.5% | 18% | 38% | 56% | 58% | 66% | 73% | 73% | 88% | 93% | 94% | 94% | 95% | 100% | 100% | 100% | 100% | 100% | 100% | Activity [20]: 100%; Activity [21]: 100%; Activity [22]: 100%; Activity [23]: 100%; Activity [24]: 100%
